Results from patent publication US11434241B2, “Pyrimidine derivatives for prevention and treatment of bacterial infections” (UNIVERSITE DE LIEGE, priority 2018, dated 2022).
≈ marks a conversion by molar mass, not a printed value. Read-outs that look alike come from different tables or passages of the source.

How the values were obtained:
S. aureus ATCC 25904 = assay: MIC determination on S. aureus ATCC 25904; type: cell-based; conditions: Staphylococcus aureus, ATCC25904, read-out: MIC S. aureus ATCC25904
Procedure: (§1) Further experiments are conducted using different strains of S. aureus, as clinically relevant Gram-positive bacterial strains: S. aureus ATCC 25904, methicillin-resistant S. aureus (MRSA) ATCC BAA-1556, Glycopeptide intermediate-resistant (GISA) S. aureus Mu-50 (ATCC 700695) in order to determine the Minimal Inhibitory Concentration (MIC) which is the minimal concentration required to prevent bacterial growth. The bioluminescent strain S. aureus Xen29 (ATCC 12600) was also used. This strain is derived from the parental strain S. aureus ATCC 12600, a pleural fluid isolate, which is also designated as NCTC8532.
(§2) A single colony selected from the different strains of S. aureus is resuspended and cultured in brain heart infusion (BHI) broth overnight (O/N) in aerobic conditions (37° C. with 220 rpm shaking), next day a 1:100 inoculum in Mueller-Hinton broth (MHB) is incubated in aerobic conditions for 3 hr (=OD0.08-0.1) and an inoculum of 1:300 dilution, corresponding to 3×10^5 CFU/ml, is incubated in presence or absence of different concentrations of the tested molecules in 1% DMSO. After O/N growth the OD of each culture was measured at 600 nm (OD600) in a spectrophotometer (Victor 3-Perkin Elmer). The MIC represents the concentration at which there is no visible growth of bacteria, i.e. ΔOD at 600 nm equal to zero (blank is the medium alone). […] The MIC of molecule 2329 against Glycopeptide intermediate-resistant (GISA) S. aureus Mu-50 (ATCC 700695) is in between 25 and 30 μM, while it is above 50 μM for molecules 2348, 2412, and 2452.

[1] = system: S. aureus Xen29 (ATCC 12600); assay: MIC determination on bioluminescent S. aureus Xen29; type: cell-based, Staphylococcus aureus; conditions: for MIC: Staphylococcus aureus; for antibacterial activity / inhibition of Xen29 growth (in words): MHB medium
Procedure: as §1, §2
Further experiments are conducted using different strains of S. aureus, as clinically relevant Gram-positive bacterial strains: methicillin-resistant S. aureus (MRSA) ATCC BAA-1556 and S. aureus Xen29 (Perkin Elmer ATCC 12600).
To determine the MIC of the above mentioned molecules in MRSA or in Xen29, a single colony of MRSA or Xen29 is resuspended and cultured in brain heart infusion (BHI) broth overnight (O/N) in aerobic conditions (37° C. with 220 rpm shaking), next day a 1:100 inoculum in Mueller-Hinton broth (MHB) is incubated in aerobic conditions for 3 hr (OD=0.08-0.1) and an inoculum of 1:300 dilution, corresponding to 3×10^5 CFU/ml, is incubated in presence or absence of different concentrations of the tested molecules in 1% DMSO. After O/N growth the OD of each culture was measured at 600 nm (OD600) in a spectrophotometer (Victor 3-Perkin Elmer). The MIC represents the concentration at which there is no visible growth of bacteria, i.e. ΔOD at 600 nm equal to zero (blank is the medium alone).
Molecule 36z has been tested for its potential antibacterial activity by determining its minimal inhibitory concentration (MIC) according to protocols recommended by EUCAST to assess the efficacy of antibiotics against bacterial strains. In brief MIC in MRSA (ATCC BAA-1556) or in Xen29 (Perkin Elmer-ATCC 12600) for 36z (molecule 25 in WO2009/034386) was determined by culturing a single colony of MRSA or Xen29 in brain heart infusion (BHI) broth overnight (O/N) in aerobic conditions (37° C. with 220 rpm shaking), while MIC for MRSE (ATCC 35984) was determined by culturing MRSE in TSB O/N. Next day a 1:100 inoculum in Mueller-Hinton broth (MHB) is incubated in aerobic conditions for 3 hr (OD=0.08-0.1) and an inoculum of 1:300 dilution, corresponding to 3×10^5 CFU/ml, is incubated in presence or absence of different concentrations of the tested molecules in 1% DMSO. After O/N growth the OD of each culture was measured at 600 nm (OD600) in a spectrophotometer (Victor 3-Perkin Elmer). The MIC represents the concentration at which there is no visible growth of bacteria, i.e. ΔOD at 600 nm equal to zero (blank is the medium alone). No antibacterial activity was found against MRSA (ATCC BAA-1556), Xen29 (Perkin Elmer-ATCC 12600 or MRSE (ATCC 35984) strains when the molecule was used at concentrations up to 200 μM.

[2] = system: Staphylococcus aureus (Xen29-ATCC 12600) biofilm formation; assay: S. aureus Xen29 biofilm formation (bioluminescence imaging, IVIS); type: cell-based; conditions: imaged every 60 min for 13 hours; for biofilm formation (photon signal per surface unit): 10 μM, vs vehicle DMSO 1%; for biofilm formation (photon signal per second, radiance): 20 μM, vs vehicle
Procedure: (§3) Bioluminescent S. aureus (Xen29, Perkin Elmer-(ATCC 12600)) is grown overnight in TSB medium, before being diluted 100 fold in fresh TSB, and incubated aerobically at 37° C. until bacteria culture reached an OD600 of 0.6 (corresponding to approximately 1-3×10^8 CFU/ml). Bacteria cultures are then diluted to 1×10^4 CFU/ml in fresh TSB. 600 μl aliquots of diluted bacteria suspensions are distributed in each well of a 48-well plate. Bacteria are allowed to adhere for 3 hours under static conditions at 37° C. After removing media, wells are rinsed 2 times with PBS to eliminate planktonic bacteria and re-filled with TSB supplemented with 0.5% glucose
(§4) […] Biofilm formation is imaged every 60 min, for 13 hours, using a IVIS camera system (Xenogen Corp.) Total photon emission from each well is then quantified using the Living Image software package (Xenogen Corp.).
as §3, with “suspensions were” for “suspensions are”
as §4
as §3, with “was” for “(Xen29, Perkin Elmer-(ATCC 12600)) is”, “O/N” for “overnight”, “were” for “are”, “TSB and aliquots of” for “TSB.”, “were” for “aliquots of diluted bacteria suspensions are”, “glucose. Molecules 2666 and 2511 were then added at 20 μM final concentration. Biofilm formation is imaged every 60 min, for 13 hours, using a IVIS camera system (Xenogen Corp.) Total photon emission from each well (photon/second:p/s) is then quantified using the Living Image software package (Xenogen Corp.).” for “glucose”

[3] = ATCC12600, read-out: MIC S. aureus Xen29

| Compound | MIC (S. aureus ATCC 25904) | MIC [1, 3] | biofilm formation (photon signal per surface unit) [2] | antibacterial activity / inhibition of Xen29 growth (in words) [1] | MIC ([1]; ATCC12600, read-out: MIC Xen29) | biofilm formation (photon signal per second, radiance) [2] |
| --- | --- | --- | --- | --- | --- | --- |
| CCCSc1nc(N[C@@H]2C[C@H]2c2ccc(F)c(F)c2)c2ncn(CC)c2n1 [Molecule 2348, N-((1R,2S)-2-(3,4-difluorophenyl)cyclopropyl)-9-ethyl-2-(propylthio)-9H-purin-6-amine] | 20 to 25 µM (≈ 7.79 to 9.74 µg/mL) | 20 to 25 µM (≈ 7.79 to 9.74 µg/mL) | fully prevented biofilm formation |  |  |  |
| C#CCn1cnc2c(N[C@@H]3C[C@H]3c3ccc(F)c(F)c3)nc(SCCC)nc21 [Molecule 2452, N-((1R,2S)-2-(3,4-difluorophenyl)cyclopropyl)-9-(prop-2-yn-1-yl)-2-(propylthio)-9H-purin-6-amine] | 20 to 25 µM (≈ 7.99 to 9.99 µg/mL) | 20 to 25 µM (≈ 7.99 to 9.99 µg/mL) | delay biofilm formation |  |  |  |
| CCSc1nc(N[C@@H]2C[C@H]2c2ccc(F)c(F)c2)c2cnn(C)c2n1.Cl [Molecule 2666, N-((1R,2S)-2-(3,4-difluorophenyl)cyclopropyl)-6-(ethylthio)-1-methyl-1H-pyrazolo[3,4-d]pyrimidin-4-amine hydrochloride] |  |  |  | able to inhibit | 20 µM | inhibited biofilm growth |
| CCn1cnc2c(N[C@@H]3C[C@H]3c3ccc(F)c(F)c3)nc(SC)nc21 [Molecule 2511, N-((1R,2S)-2-(3,4-difluorophenyl)cyclopropyl)-9-ethyl-2-(methylthio)-9H-purin-6-amine] |  |  |  | able to inhibit | 30 µM (≈ 10.8 µg/mL) | inhibited biofilm growth |
| CCCSc1nc(N[C@@H]2C[C@H]2c2ccc(F)c(F)c2)c2ncn(C)c2n1 [Molecule 2329, N-((1R,2S)-2-(3,4-difluorophenyl)cyclopropyl)-9-methyl-2-(propylthio)-9H-purin-6-amine] | 20 to 25 µM (≈ 7.51 to 9.39 µg/mL) | 20 to 25 µM (≈ 7.51 to 9.39 µg/mL) | fully prevented biofilm formation |  |  |  |
| C=CCn1cnc2c(N[C@@H]3C[C@H]3c3ccc(F)c(F)c3)nc(SCCC)nc21 [Molecule 2412, 9-allyl-N-((1R,2S)-2-(3,4-difluorophenyl)cyclopropyl)-2-(propylthio)-9H-purin-6-amine] | 20 to 25 µM (≈ 8.03 to 10 µg/mL) | 20 to 25 µM (≈ 8.03 to 10 µg/mL) | delay biofilm formation |  |  |  |
